Data taken from patent publication US20250340561A1, “QUINAZOLINE COMPOUND FOR INDUCING DEGRADATION OF G12D MUTANT KRAS PROTEIN” (Astellas Pharma Inc., priority 2021, published 2025).

These compounds were tested against T1, KRAS G12D (Homo sapiens, UniProt P01116, G12D) (assay: Test Example 1-2: KRAS degradation action in AsPC-1, Cell ELISA). Conditions: AsPC-1 cells, overnight treatment, corrected with β-actin, 0% = 10 μM Example No. 26 (Example No. 8 for Example Nos. 74 and 75).
T1 construct: host or cells: AsPC-1 human pancreatic cancer cells
Type: cell-based
Description: Test Example 1-2: Evaluation of KRAS Degradation Action on Human G12D Mutant KRAS-Positive Pancreatic Cancer Line AsPC-1
The KRAS degradation action of test compounds was evaluated by measuring the expression levels of KRAS G12D by Cell ELISA.
[…] As for the cell culture conditions, a RPMI 1640 medium containing 10% fetal bovine serum was used in the presence of 5% CO2 at 37° C. The next day, the test compounds (10 points having final concentrations in the range of 10 μM to 0.3 nM), the compound of Example No. 26 (Example No. 8 for Example Nos. 74 and 75) of a final concentration of 10 μM as a positive control and DMSO, which was the solvent for the test compounds, as a negative control were diluted 500-fold with a fresh medium and were added at 20 μL per well. The cells were cultured overnight.
The next day, the culture supernatant was removed, and 4% paraformaldehyde phosphate buffer (from FUJIFILM Wako Pure Chemical Corporation) was added at 20 μL per well. The plate was allowed to stand for 30 minutes at room temperature to thus immobilize the cells. Then, the supernatant was removed, and 0.1% Triton X-100 (from Amersham Biosciences)-containing PBS was added at 20 μL per well. After allowing to stand for 10 minutes at room temperature, the supernatant was removed. PBS was added at 25 μL per well, and the supernatant was removed to thus wash each well. The washing was performed twice in total. Next, the supernatant was removed, and 0.5% sodium dodecyl sulfate (SDS; from Invitrogen)-containing PBS was added at 20 μL per well. After allowing to stand at room temperature for 10 minutes, the supernatant was removed by centrifugation (using a centrifugal dehydrator machine, the supernatant was removed by the same method hereinafter). PBS was added at 25 μL per well, and the supernatant was removed to thus wash each well. The washing was performed twice in total. The supernatant was removed by centrifugation, and a blocking solution (Intercept Blocking Buffer) was added at 20 μL per well. After allowing to stand for 30 minutes at room temperature, the supernatant was removed by centrifugation, and a solution obtained by diluting an anti-Ras (G12D Mutant Specific) antibody and an anti-3-actin antibody 1,000-fold with a blocking solution was added at 20 μL per well as a primary antibody. The plate was allowed to stand overnight at 4° C.
The next day, the plate was centrifuged to remove the supernatant. PBS was added at […], and the supernatant was removed to thus wash each well. The washing was performed twice in total. The supernatant was removed by centrifugation, and a solution obtained by diluting Donkey anti-Mouse IgG H&L (TRDye 680RD) (from Li—COR Biosciences) and Goat anti-Rabbit IgG H&L (IRDye 800CW) (from Li—COR Biosciences) 1,000-fold with a blocking solution was added at 20 μL per well as a secondary antibody. After allowing to stand for 1 hour at room temperature, the supernatant was removed. PBS was added at 25 μL per well, and the supernatant was removed to thus wash each well. The washing was performed twice in total. After removing the supernatant by centrifuging the plate, the plate was dried as it was with air at room temperature for 2 hours or more, and the 700-nm and 800-nm fluorescent signals were measured with Aerius (from LI-COR Biosciences).
With the signaling value at the time of addition of DMSO corrected with the signaling value of β-actin taken as 100% and with the signaling value at the time of addition of 10 μM of the compound of Example No. 26 taken as 0%, the 50% degradation values (DC50) of the amounts of KRAS were calculated by Sigmoid-Emax model nonlinear regression analysis. The molecular weights of the test compounds were calculated as the molecular weights of the trihydrochloride for Example No. 30, the tetrahydrochloride for Example No. 46 and the free forms forming no salt for the remaining Example Nos. The results for some test compounds of the formula (I) are shown in Table 2.

T1 sequence (P01116 1-188 isoform P01116-2 G12D): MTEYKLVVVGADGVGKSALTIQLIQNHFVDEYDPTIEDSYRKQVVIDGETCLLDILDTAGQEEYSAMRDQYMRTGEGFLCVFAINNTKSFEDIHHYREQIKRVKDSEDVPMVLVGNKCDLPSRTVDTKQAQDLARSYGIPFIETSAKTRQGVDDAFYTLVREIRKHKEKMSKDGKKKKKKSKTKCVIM

Point of comparison: `Cc1ncoc1-c1ccc([C@H](CO)NC(=O)[C@@H]2C[C@@H](O)CN2C(=O)[C@H](C(C)C)n2cc(-c3ccc(COc4c(-c5c(C)c(F)cc6[nH]ncc56)c(C5CC5)cc5c(N6C[C@@H]7C[C@H]6CN7)nc(OC6CCOCC6)nc45)cc3)nn2)cc1` [Example 38], DC50 0.053 µM. Against it:
- Cc1ncsc1-c1ccc([C@H](CO)NC(=O)[C@@H]2C[C@@H](O)CN2C(=O)[C@H](C(C)C)n2cc(-c3ccc(COc4c(-c5c(C)c(F)cc6[nH]ncc56)c(C5CC5)cc5c(N6C[C@@H]7C[C@H]6CN7)nc(OCC6(CO)CCOCC6)nc45)cc3)nn2)cc1 (atropisomer, axis not shown) [Example 36] — 3.1-fold lower, 0.017 µM
- Cc1ncsc1-c1ccc([C@H](CO)NC(=O)[C@@H]2C[C@@H](O)CN2C(=O)[C@H](C(C)C)n2cc(-c3ccc(COc4c(-c5c(C)c(F)cc6[nH]ncc56)c(C5CC5)cc5c(N6C[C@@H]7C[C@H]6CN7)nc(O[C@H](C)[C@@H](C)O)nc45)cc3)nn2)cc1 (atropisomer, axis not shown) [Example 37] — 2.1-fold lower, 0.025 µM
- Cc1c(F)cc2[nH]ncc2c1-c1c(C2CC2)cc2c(N3C[C@@H]4C[C@H]3CN4)nc(OC3CCOCC3)nc2c1OCc1ccc(-c2cn([C@H](C(=O)N3C[C@H](O)C[C@H]3C(=O)N[C@@H](CO)c3ccccc3F)C(C)C)nn2)cc1 [Example 30] — 3-fold higher, 0.157 µM
- Cc1ncsc1-c1ccc([C@H](CO)NC(=O)[C@@H]2C[C@@H](O)CN2C(=O)[C@H](C(C)C)n2cc(-c3ccc(COc4c(-c5c(C)c(F)cc6[nH]ncc56)c(C5CC5)cc5c(N6C[C@@H]7C[C@H]6CN7)nc(O[C@H]6CCN(CCO)C6)nc45)cc3)nn2)cc1 [Example 31] — 2.6-fold higher, 0.138 µM
- COCCN1CC[C@H](Oc2nc(N3C[C@@H]4C[C@H]3CN4)c3cc(C4CC4)c(-c4c(C)c(F)cc5[nH]ncc45)c(OCc4ccc(-c5cn([C@H](C(=O)N6C[C@H](O)C[C@H]6C(=O)N[C@@H](CO)c6ccc(-c7scnc7C)cc6)C(C)C)nn5)cc4)c3n2)C1 [Example 32] — 2.6-fold higher, 0.139 µM
- Cc1ncsc1-c1ccc([C@H](CO)NC(=O)[C@@H]2C[C@@H](O)CN2C(=O)[C@H](C(C)C)n2cc(-c3ccc(COc4c(-c5c(C)c(F)cc6[nH]ncc56)c(C5CC5)cc5c(N6C[C@@H]7C[C@H]6CN7)nc(O[C@H]6CCN(CC(F)F)C6)nc45)cc3)nn2)cc1 [Example 33] — 1.8-fold lower, 0.03 µM
- Cc1ncsc1-c1ccc([C@H](CO)NC(=O)[C@@H]2C[C@@H](O)CN2C(=O)[C@H](C(C)C)n2cc(-c3ccc(COc4c(-c5c(C)c(F)cc6[nH]ncc56)c(C5CC5)cc5c(N6C[C@@H]7C[C@H]6CN7)nc(O[C@@H]6CCN(CC(F)F)C6)nc45)cc3)nn2)cc1 [Example 34] — 2.2-fold lower, 0.024 µM
- Cc1ncsc1-c1ccc([C@H](CO)NC(=O)[C@@H]2C[C@@H](O)CN2C(=O)[C@H](C(C)C)n2cc(-c3ccc(COc4c(-c5c(C)c(F)cc6[nH]ncc56)c(C5CC5)cc5c(N6C[C@@H]7C[C@H]6CN7)nc(OC6CCOCC6)nc45)cc3)nn2)nc1 [Example 35] — 1.6-fold higher, 0.084 µM
- CO[C@H](C)[C@@H](C)Oc1nc(N2C[C@@H]3C[C@H]2CN3)c2cc(C3CC3)c(-c3c(C)c(F)cc4[nH]ncc34)c(OCc3ccc(-c4cn([C@H](C(=O)N5C[C@H](O)C[C@H]5C(=O)N[C@@H](CO)c5ccc(-c6scnc6C)cc5)C(C)C)nn4)cc3)c2n1 [Example 39] — 8.8-fold lower, 0.006 µM
- COC[C@@H](C)Oc1nc(N2C[C@@H]3C[C@H]2CN3)c2cc(C3CC3)c(-c3c(C)c(F)cc4[nH]ncc34)c(OCc3ccc(-c4cn([C@H](C(=O)N5C[C@H](O)C[C@H]5C(=O)N[C@@H](CO)c5ccc(-c6scnc6C)cc5)C(C)C)nn4)cc3)c2n1 [Example 40] — 11-fold lower, 0.005 µM
- CO[C@@H](C)[C@H](C)Oc1nc(N2C[C@@H]3C[C@H]2CN3)c2cc(C3CC3)c(-c3c(C)c(F)cc4[nH]ncc34)c(OCc3ccc(-c4cn([C@H](C(=O)N5C[C@H](O)C[C@H]5C(=O)N[C@@H](CO)c5ccc(-c6scnc6C)cc5)C(C)C)nn4)cc3)c2n1 [Example 41] — 5.9-fold lower, 0.009 µM
- Cc1ncsc1-c1ccc([C@H](CO)NC(=O)[C@@H]2C[C@@H](O)CN2C(=O)[C@H](C(C)C)n2cc(-c3ccc(COc4c(-c5c(C)c(F)cc6[nH]ncc56)c(C5CC5)cc5c(N6C[C@@H]7C[C@H]6CN7)nc(O[C@@H](C)[C@H](C)O)nc45)cc3)nn2)cc1 [Example 42] — 8.8-fold lower, 0.006 µM
- CC[C@@H](C)Oc1nc(N2C[C@@H]3C[C@H]2CN3)c2cc(C3CC3)c(-c3c(C)c(F)cc4[nH]ncc34)c(OCc3ccc(-c4cn([C@H](C(=O)N5C[C@H](O)C[C@H]5C(=O)N[C@@H](CO)c5ccc(-c6scnc6C)cc5)C(C)C)nn4)cc3)c2n1 [Example 43] — 5.3-fold lower, 0.01 µM
- Cc1ncsc1-c1ccc([C@H](CO)NC(=O)[C@@H]2C[C@@H](O)CN2C(=O)[C@H](C(C)C)n2cc(-c3ccc(COc4c(-c5c(C)c(F)cc6[nH]ncc56)c(C5CC5)cc5c(N6C[C@@H]7C[C@H]6CN7)nc(OCC67CCCN6CCC7)nc45)cc3)nn2)cc1 [Example 44] — 2.1-fold higher, 0.111 µM
- Cc1ncsc1-c1ccc([C@H](CO)NC(=O)[C@@H]2C[C@@H](O)CN2C(=O)[C@H](C(C)C)n2cc(-c3ccc(COc4c(-c5c(C)c(F)cc6[nH]ncc56)c(C5CC5)cc5c(N6C[C@@H]7C[C@H]6CN7)nc(O[C@H](C)CN6CCOCC6)nc45)cc3)nn2)cc1 [Example 45] — 3.5-fold lower, 0.015 µM
- Cc1ncsc1-c1ccc([C@H](CO)NC(=O)[C@@H]2C[C@@H](O)CN2C(=O)[C@H](C(C)C)n2cc(-c3ccc(COc4c(-c5c(C)c(F)cc6[nH]ncc56)c(C5CC5)cc5c(N6C[C@@H]7C[C@H]6CN7)nc(O[C@H](C)CN(C)C)nc45)cc3)nn2)cc1 [Example 46] — within 1.5-fold, 0.037 µM
- CO[C@H](C)COc1nc(N2C[C@@H]3C[C@H]2CN3)c2cc(C3CC3)c(-c3c(C)c(F)cc4[nH]ncc34)c(OCc3ccc(-c4cn([C@H](C(=O)N5C[C@H](O)C[C@H]5C(=O)N[C@@H](CO)c5ccc(-c6scnc6C)cc5)C(C)C)nn4)cc3)c2n1 [Example 47] — 4.1-fold lower, 0.013 µM
- CO[C@@H](C)COc1nc(N2C[C@@H]3C[C@H]2CN3)c2cc(C3CC3)c(-c3c(C)c(F)cc4[nH]ncc34)c(OCc3ccc(-c4cn([C@H](C(=O)N5C[C@H](O)C[C@H]5C(=O)N[C@@H](CO)c5ccc(-c6scnc6C)cc5)C(C)C)nn4)cc3)c2n1 [Example 48] — 13-fold lower, 0.004 µM
- Cc1ncsc1-c1ccc([C@H](CO)NC(=O)[C@@H]2C[C@@H](O)CN2C(=O)[C@H](C(C)C)n2cc(-c3ccc(COc4c(-c5c(C)c(F)cc6[nH]ncc56)c(C5CC5)cc5c(N6C[C@@H]7C[C@H]6CN7)nc(OC6CCOCC6)nc45)cc3F)nn2)cc1 [Example 49, (4R)-1-[(2S)-2-(4-{4-[({6-cyclopropyl-4-[(1S,4S)-2,5-diazabicyclo[2.2.1]heptan-2-yl]-7-(6-fluoro-5-methyl-1H-indazol-4-yl)-2-[(oxan-4-yl)oxy]quinazolin-8-yl}oxy)methyl]-2-fluorophenyl}-1H-1,2,3-triazol-1-yl)-3-methylbutanoyl]-4-hydroxy-N-{(1R)-2-hydroxy-1-[4-(4-methyl-1,3-thiazol-5-yl)phenyl]ethyl}-L-prolinamide] — 3.5-fold lower, 0.015 µM
- Cc1ncsc1-c1ccc([C@H](CO)NC(=O)[C@@H]2C[C@@H](O)CN2C(=O)[C@H](C(C)C)n2cc(-c3ccc(COc4c(-c5c(C)c(F)cc6[nH]ncc56)c(C5CC5)cc5c(N6C[C@@H]7C[C@H]6CN7)nc(OC[C@@H]6CCOC6)nc45)cc3)nn2)cc1 [Example 50] — 4.8-fold lower, 0.011 µM
- Cc1ncsc1-c1ccc([C@H](CO)NC(=O)[C@@H]2C[C@@H](O)CN2C(=O)[C@H](C(C)C)n2cc(-c3ccc(COc4c(-c5c(C)c(F)cc6[nH]ncc56)c(C5CC5)cc5c(N6C[C@@H]7C[C@H]6CN7)nc(OC[C@H]6CCOC6)nc45)cc3)nn2)cc1 [Example 51] — 4.8-fold lower, 0.011 µM
